Source: patent US20120058133A1, “INHIBITION OF TRNA SYNTHETASES AND THERAPEUTIC APPLICATIONS THEREOF” (President and Fellows of Harvard College, priority 2009, published 2012)
“Also recorded” adds a separate entry of the source.

Assays:
[1] = tested on: translation in rabbit reticulocyte lysate; experiment: In vitro translation in rabbit reticulocyte lysate (RRL); type: biochemical; settings: for translation of luciferase RNA in RRL: standard amino acid mix
Method: FIG. 23. HF and FF inhibit prolyl tRNA synthetase activity in vitro. […] Rabbit reticulocyte lysate (RRL) was incubated with luciferase mRNA and translation quantitated in a luminescence assay. A high concentration of mixed or individual amino acids (1 mM of each) was added to rescue translational inhibition. AA Mix 1: Asn, Arg, Val, Glu, Gly; AA Mix2: Lys, Ile, Tyr, Asp, Trp; Mix 3: His, Met, Leu, Ala, Thr; Mix 4: Ser, Phe, Pro, Gln. […] Note log scale of y axis.
Inhibitors (FIG. 22) and proline were assayed as described in FIG. 23A. Note log scale at Y axis. Error bars reflect standard deviation of triplicate determinations.
Short myc-tagged polypeptides of identical sequence (see Example 9, “Materials and Methods”) with the exception that NoPro lacks proline, while ProPro contains a proline dipeptide, were translated in RRL in the presence of indicated inhibitors. Translation was examined by anti-myc Western blot.
Note log scale of Y axis.
Translation in vitro was performed using rabbit reticulocyte lysates and luciferase mRNA as template. Translation was measured as arbitrary units of luciferase activity using a luminometer based luminescence assay. Log scale presentation of background-subtracted data is shown.

[2] = tested on: GCN2 phosphorylation / AAR pathway; experiment: AAR pathway activation in MEFs (GCN2, eIF2a phosphorylation, CHOP); type: cell-based, mouse; settings: for reversal of GCN2 phosphorylation by cognate amino acid: 2 mM proline or 2 mM threonine; for GCN2 phosphorylation in fibroblasts: 2 hours, borrelidin 1 μM
Method: FIG. 24. Activation of the AAR in cells by HF/FF occurs through inhibition of proline utilization. FIG. 24A is a gel showing HF-induction of the AAR pathway is reversed by proline. MEFs were treated with the indicated concentration of HF or FF in the presence or absence of 2 mM Proline for 2 hours (left) or treated with 1 μM borrelidin in the presence or absence of 2 mM Threonine for 2 hours (right). Cells were lysed and assessed by anti-pGCN2 or anti-GCN2 Western blot. Data are representative of three separate experiments.
FIG. 24B is a gel showing HF induction of eIF2a phosphorylation and CHOP expression is GCN2 dependent. Wild Type or GCN2−/− MEFs were treated with 50 nM HF in the presence or absence of 2 mM proline. Cells were lysed at 2 hours post-HF addition (peIF2a) or 6 hours post-HF addition (CHOP) and analyzed for phosphoprotein or total protein levels by Western blot.

[3] = tested on: murine CD4+ CD25− T cells; experiment: Th17 differentiation of activated CD4+ CD25− T cells (TGFβ plus IL-6; IL-17+ IFNγ− cells); type: cell-based, mouse; settings: for IL-17 production / Th17 differentiation: 0.2 mM L-tryptophanol; for reversal of Th17 inhibition by threonine: 6 nM borrelidin, 0.5 mM threonine
Method: (§1) Purified CD4^+ CD25^− T cells were activated in vitro as previously described (Djuretic et al., Nat. Immunol. 8:145, 2007) using 0.3 μg/ml hamster anti-mouse CD3 (clone 145-2C11) (ATCC—Manassas, Va.) and 0.5 μg/ml hamster anti-mouse CD28 (BD Pharmingen—San Jose, Calif.). Activated cell cultures were differentiated using the following combinations of cytokines and antibodies: iTreg-recombinant human TGFβ1 (3 ng/ml—R&D systems, Minneapolis, Minn.), Th17-TGFβ1 (3 ng/ml) plus recombinant mouse IL-6 (30 ng/ml—R&D systems). Th1 and Th2 differentiation was performed as previously described (Djuretic et al., Nat. Immunol. 8:145, 2007). Human IL-2 supernatant (National Cancer Institute) was used in culture at 0.01 U/ml and was added at 48 hours-post activation when T cells were split into tissue culture wells lacking CD3 and CD28 antibodies, with the exception of Th17 cultures that were maintained in the absence of exogenous IL-2. CD8^+ T cells were activated with 1 μg/ml anti-CD3 and 1 μg/ml anti-CD28 and were expanded in 0.1 U/ml IL-2 until day 6 post activation. CD43-depleted B cells were activated in vitro by culturing with 25 μg/ml LPS (Sigma—St. Louis, Mo.) for 3-4 days in the presence or absence of TGFβ. All reagents (see below) were added at the time of T cell activation and again at 48 hours post activation unless indicated otherwise. For some experiments, purified CD4^+ CD25^− T cells, CD8^+ T cells or B cells were labeled with 1 μM CFSE (Invitrogen) prior to activation in accordance with manufacturer's instructions. Human T cell activation was performed by plating purified monocytes in a 96-well flat bottom plate at a concentration of 2×10^4 cells per well in complete medium overnight. 10^5 purified human memory T cells were added to monocyte cultures in the presence of soluble anti-CD3/anti-CD28 beads (Dynabeads, Invitrogen). T cells were expanded in the presence HF or MAZ1310 for up to 6 days.
MAZ1310 (Kamberov, Ph.D. Dissertation, Harvard University, 2008) was generated by chemical derivatization of halofuginone and was used at equal concentrations as a negative control. HF and MAZ1310 were prepared as 100 mM stock solutions in DMSO and diluted to the indicated concentrations. SB-431542 (Inman et al., Mol. Pharmacol. 62:65, 2002) (Tocris bioscience—Ellisville, Mo.) was prepared as a 10 mM stock solution in DMSO and was used in culture at 10 μM. L-tryptophanol was prepared as a 20 mM stock solution in 0.1 M NaOH, pH 7.4 and was used at 0.2 mM. For amino acid starvation experiments, T cells were activated and differentiated as above in D-MEM medium without L-cysteine and L-methionine (Invitrogen—Carlsbad, Calif.), or D-MEM medium without L-leucine. Stocks containing 20 mM L-cysteine (Sigma—St. Louis, Mo.) plus 10 mM L-methionine (Sigma), or 400 mM L-leucine (Sigma) were prepared in ddH2O, pH 1.0 and were added to medium at the indicated concentrations.
(§2) For detection of intracellular cytokines in murine cells, cultured T or B cells were stimulated with 10 nM PMA (Sigma) and […] (Sigma) for 4-5 hours in the presence of 10 mM brefeldin A (Sigma). Stimulated cells were harvested, washed with PBS and fixed with PBS plus 4% paraformaldehyde at room temperature for 20 minutes. Cells were then washed with PBS, permeabilized with PBS supplemented with 1% BSA and 0.5% saponin (Sigma) at room temperature for 10 minutes before cytokine-specific antibodies were added and incubated with cells for an additional 20 minutes at room temperature.

[4] = Cell-based assays (not specified)
TGFβ signaling = experiment: Lymphocyte responses to TGFβ (Smad phosphorylation and others); type: cell-based, mouse; settings: low dose HF; 10 μM SB-431542
Method: FIG. 8. […] FIG. 8A is a set of FACS analyses of CD4^+ CD25^− T cells activated in Th1 or Th2 polarizing conditions, either in the presence or absence of TGFβ. DMSO, 10 nM HF, 10 nM MAZ1310, or 10 μM SB-431542 added as indicated at the time of activation. Intracellular cytokine staining was performed on expanded T cells on day 5.
FIG. 8B is a set of FACS analyses of CD8^+ T cells activated in the presence or absence of TGFβ and cultured with DMSO, 10 nM HF, 10 nM MAZ1310, or 10 μM SB-431542. Expanded cells were restimulated on day 5 and intracellular staining was performed.
FIG. 8C is a set of FACS analyses of CFSE-labeled B cells activated by LPS stimulation in the presence or absence of TGFβ plus DMSO, 10 nM HF, 10 nM MAZ1310, or 10 μM SB-431542. Intracellular IL-6 production in B cells restimulated with PMA plus ionomycin, or cell-surface IgA expression was determined 4 days after activation.
FIG. 8D depicts western blot analyses of purified CD4^+ CD25^− T cells treated with DMSO, 40 nM MAZ1310, titrating concentrations of HF (2.5-40 nM) or 10 μM SB-431542 for 30 minutes in complete medium supplemented with 0.1% fetal calf serum. T cells were then activated in the presence or absence of 3 ng/ml TGFβ. Whole cell extracts were prepared after 1 hour of stimulation and western blot analyses were performed using the indicated antibodies. […]

[5] = tested on: mouse and human fibroblasts; experiment: Collagen protein production in mouse and human fibroblasts; type: cell-based; settings: data not shown
[6] = tested on: murine CD4+ CD25− T cells, CD8+ T cells, B cells; experiment: T and B cell activation, proliferation, cytokine production and Th1/Th2/iTreg differentiation; type: cell-based, mouse; settings: 3 ng/ml Borrelidin
Method: FIG. 2A, Left, is a graph showing dose response analyses performed on activated carboxyfluorescein succinimidyl ester (CFSE)-labeled CD4^+CD25^− T cells in the presence of DMSO, 40 nM MAZ1310, or increasing concentrations of halofuginone (HF) (1.25-40 nM). CFSE dilution and cell surface CD25 expression were determined 48 hours after activation. Intracellular cytokine production was determined on day 4 or 5 following restimulation with phorbol myristate acetate (PMA) and ionomycin. […] FIG. 2A, Right is a graph showing dose-response analyses of HF effects on CD8^+ T cell or B cell function. Cells were activated in the presence of DMSO, 40 nM MAZ1310, or increasing concentrations of HF (1.25-40 nM). CFSE dilution, cell surface CD25 expression, and intracellular cytokine production were determined as above 2-5 days after activation.
At approximately 10-fold higher concentrations (>20 nM), HF induced a general inhibition of T and B cell activation, proliferation, and effector function (FIG. 2A, 2B).
as §1
Cytokines secreted into media supernatant were measured using the mouse Th1/Th2 cytometric bead array (CBA—BD Pharmingen) in accordance with manufacturers instructions. Briefly, CD4+ CD25− T cells were activated in anti-CD3/anti-CD28-coated tissue culture wells (see above) and supernatants were collected at the indicated times.
as §2, with “temperature. […]” for “temperature.”

In the case of O=C(C[C@H]1NCCC[C@@H]1O)Cn1cnc2ccccc2c1=O [FF, febrifugine], the “translation of NoPro polypeptide” value [1] is reported as “had no effect on the translation of NoPro”, the “translation of ProPro polypeptide” value [1] is reported as “prevented translation of ProPro” and the “rescue of translation inhibition by added purified EPRS” value ([1]; 80 ng or 0.5 μg EPRS) is reported as “rescued HF/FF-inhibition of protein translation”. The “rescue of translation inhibition by added amino acids” value ([1]; excess amino acids (1-2 mM)) was “only proline could restore translation”, the “translation of luciferase RNA in RRL” value [1] was “inhibited the translation of luciferase RNA” and the “reversal of GCN2 phosphorylation by cognate amino acid” value [2] was “abrogated by the addition of 2 mM proline”. For the same compound, the “GCN2 phosphorylation in fibroblasts” value [2] was “Stimulation of GCN2 phosphorylation”.

For N[C@H](CO)Cc1c[nH]c2ccccc12 [L-tryptophanol], the “IL-17 production / Th17 differentiation” value [3] was “impaired IL-17 production”, the “IL-17 production / Th17 differentiation” value ([3]; listed as tryptophanol) was “inhibited Th17 differentiation” and the Th17 differentiation ([3]; 1 mM Tryptophanol) was “inhibits Th17 differentiation”.

In the case of CC(C)(C)OC(=O)N1CCC[C@H](O)[C@H]1CC(=O)Cn1cnc2cc(Br)c(Cl)cc2c1=O [MAZ1310], the “activity in cell-based assays” value [4] is reported as “lack activity” and the “translation of luciferase RNA in RRL” value [1] is reported as “no activity”.

In the case of CC(=O)N1CCC[C@H](O)[C@H]1CC(=O)Cn1cnc2cc(Br)c(Cl)cc2c1=O [MAZ1442], the “activity in cell-based assays” value [4] is reported as “lack activity” and the “translation of luciferase RNA in RRL” value [1] is reported as “no activity”.

In the case of NC(=O)c1ccc(-c2nc(-c3ccc4c(c3)OCO4)c(-c3ccccn3)[nH]2)cc1 [SB-431542], the “TGFβ-induced Smad phosphorylation and other lymphocyte responses to TGFβ” value (TGFβ signaling) is reported as “abrogated all responses to TGFβ”.

With C[C@@H]1C[C@H](C)C[C@H](C)[C@@H](O)CC(=O)O[C@H]([C@@H]2CCC[C@H]2C(=O)O)C/C=C/C=C(/C#N)[C@H](O)[C@@H](C)C1 [borrelidin] the “production of collagen protein” value [5] was “inhibited by borrelidin-treatment and rescued by the addition of threonine”, the “differentiation of Th1, Th2, or iTreg cells” value [6] was “without perturbing the differentiation of Th1, Th2, or iTreg cells” and the “reversal of GCN2 phosphorylation by cognate amino acid” value [2] was “prevented by addition of an excess of its cognate amino acid threonine”. For the same compound, the “GCN2 phosphorylation in fibroblasts” value [2] was “stimulate GCN2 phosphorylation”, the Th17 cell differentiation ([3]; 6 nM (3 ng/mL) borrelidin) was “Selectively Inhibits Th17 Differentiation; also recorded: inhibited Th17 cell differentiation” and the “reversal of Th17 inhibition by threonine” value [3] was “rescued by its cognate amino acid”. For the same compound, the “reversal of Th17 inhibition by threonine” value ([3]; listed as Borrelidin) was “reversed by the addition of threonine”.
